Laboratory results published in ChEMBL document CHEMBL2413050, “Design and synthesis of conformationally restricted capsaicin analogues based in the 1, 3, 4-thiadiazole heterocycle reveal a novel family of transient receptor potential vanilloid 1 (TRPV1) antagonists” (Eur J Med Chem, 2013).

Experiments:
[1] = molecular target: T1, Transient receptor potential cation channel subfamily V member 1 (Rattus norvegicus, UniProt O35433); assay: Antagonist activity at rat TRPV1 receptor expressed in HEK293T cells assessed as inhibition of capsaicin-induced calcium flux after 30 mins by Fluo-4AM based fluorescence assay; format: cell-based, HEK-293T
[2] = molecular target: Transient receptor potential cation channel subfamily V member 1 (Rattus norvegicus) (UniProt O35433); assay: Antagonist activity at rat TRPV1 receptor expressed in HEK293T cells assessed as inhibition of temperature-induced calcium flux at 1 uM after 30 mins by Fluo-4AM based fluorescence assay relative to control; format: cell-based; conditions: HEK-293T
[3] = molecular target: Transient receptor potential cation channel subfamily V member 1 (Rattus norvegicus) (UniProt O35433); assay: Antagonist activity at rat TRPV1 receptor expressed in HEK293T cells assessed as inhibition of capsaicin-induced calcium flux at 1 uM after 30 mins by Fluo-4AM based fluorescence assay relative to control; format: cell-based; conditions: HEK-293T
[4] = molecular target: T2, Uncharacterized protein (Gallus gallus) (UniProt F1NJH8); assay: Antagonist activity at chicken TRPV1 receptor assessed as inhibition of capsaicin-induced calcium flux at 1 uM after 30 mins by cell based Fluo-4AM fluorescence assay relative to control
T2 sequence (whole entry): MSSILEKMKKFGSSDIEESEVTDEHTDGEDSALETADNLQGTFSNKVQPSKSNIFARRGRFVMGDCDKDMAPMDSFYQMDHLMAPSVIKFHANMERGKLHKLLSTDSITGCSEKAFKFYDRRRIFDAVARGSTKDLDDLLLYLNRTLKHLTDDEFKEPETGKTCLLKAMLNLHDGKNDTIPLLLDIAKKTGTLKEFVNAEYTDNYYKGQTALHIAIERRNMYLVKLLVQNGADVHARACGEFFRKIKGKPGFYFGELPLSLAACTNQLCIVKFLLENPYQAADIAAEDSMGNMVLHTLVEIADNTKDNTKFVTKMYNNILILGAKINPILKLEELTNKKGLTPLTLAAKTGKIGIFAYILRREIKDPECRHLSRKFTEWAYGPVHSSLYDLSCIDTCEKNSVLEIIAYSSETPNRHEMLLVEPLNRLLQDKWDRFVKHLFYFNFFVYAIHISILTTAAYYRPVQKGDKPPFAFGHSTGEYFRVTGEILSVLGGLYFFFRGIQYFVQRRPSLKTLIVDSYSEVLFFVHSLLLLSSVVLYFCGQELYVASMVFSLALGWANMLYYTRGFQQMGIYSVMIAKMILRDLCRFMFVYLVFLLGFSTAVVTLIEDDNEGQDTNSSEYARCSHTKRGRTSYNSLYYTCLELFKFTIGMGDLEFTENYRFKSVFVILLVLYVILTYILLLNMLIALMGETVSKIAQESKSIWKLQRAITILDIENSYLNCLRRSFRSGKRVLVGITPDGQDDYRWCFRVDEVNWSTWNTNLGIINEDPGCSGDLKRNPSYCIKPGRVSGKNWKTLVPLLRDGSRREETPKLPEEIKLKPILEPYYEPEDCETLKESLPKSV

[5] = molecular target: T1, Transient receptor potential cation channel subfamily V member 1; assay: Antagonist activity at rat TRPV1 receptor expressed in HEK293T cells assessed as inhibition of temperature-induced calcium flux after 30 mins by Fluo-4AM based fluorescence assay; format: cell-based, HEK-293T

T1 sequence (O35433 whole entry): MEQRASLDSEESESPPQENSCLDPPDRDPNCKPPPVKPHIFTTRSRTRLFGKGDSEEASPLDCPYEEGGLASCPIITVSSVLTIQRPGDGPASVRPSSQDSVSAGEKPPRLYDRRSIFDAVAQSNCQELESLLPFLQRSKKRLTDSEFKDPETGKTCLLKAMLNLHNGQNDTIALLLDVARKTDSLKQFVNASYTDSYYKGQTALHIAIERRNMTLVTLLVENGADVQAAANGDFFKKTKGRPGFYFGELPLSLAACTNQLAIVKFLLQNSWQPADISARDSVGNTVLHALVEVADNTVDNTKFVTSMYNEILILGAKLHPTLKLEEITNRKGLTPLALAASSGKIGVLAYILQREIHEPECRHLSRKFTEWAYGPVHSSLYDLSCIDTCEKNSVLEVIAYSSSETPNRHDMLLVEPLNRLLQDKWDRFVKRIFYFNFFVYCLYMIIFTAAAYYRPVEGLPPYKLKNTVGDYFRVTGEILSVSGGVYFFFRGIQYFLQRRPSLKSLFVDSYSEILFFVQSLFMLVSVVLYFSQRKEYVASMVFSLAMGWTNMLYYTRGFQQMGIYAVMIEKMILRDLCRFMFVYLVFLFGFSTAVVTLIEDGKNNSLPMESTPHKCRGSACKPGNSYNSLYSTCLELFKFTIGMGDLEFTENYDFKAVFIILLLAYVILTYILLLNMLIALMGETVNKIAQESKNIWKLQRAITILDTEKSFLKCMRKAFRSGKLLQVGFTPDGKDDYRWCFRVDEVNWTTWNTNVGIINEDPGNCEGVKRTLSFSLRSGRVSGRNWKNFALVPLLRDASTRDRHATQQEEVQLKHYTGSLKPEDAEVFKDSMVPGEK
Chain of Transient receptor potential cation channel subfamily V member 1 (Rattus norvegicus) (O35433 whole entry): as above

## CCCCCCC(=O)Nc1nnc(-c2ccc(O)c(OC)c2)s1
[1]
  IC50: 0.77 nM
[2]
  inhibition: 94%
[3]
  inhibition: 95.3%

## CCCCCCCCC(=O)Nc1nnc(-c2cc(I)c(O)c(OC)c2)s1
[1]
  IC50: 0.34 nM
[4]
  inhibition: 80.1%
[5]
  IC50: 0.15 nM
[2]
  inhibition: 91.9%
[3]
  inhibition: 96.9%

## CCCCCCC(=O)Nc1nnc(-c2cc(I)c(O)c(OC)c2)s1
[1]
  IC50: 6.07 nM
[2]
  inhibition: 92.4%
[3]
  inhibition: 90.8%

## CCCCCC(=O)Nc1nnc(-c2ccc(O)c(OC)c2)s1
[1]
  IC50: 2.61 nM
[4]
  inhibition: 92.6%
[2]
  inhibition: 88.8%
[3]
  inhibition: 95.5%

## CCCCCCCC(=O)Nc1nnc(-c2cc(I)c(O)c(OC)c2)s1
[1]
  IC50: 0.33 nM
[4]
  inhibition: 85.4%
[5]
  IC50: 1.09 nM
[2]
  inhibition: 93.7%
[3]
  inhibition: 94.5%

## CCCCCCCCC(=O)Nc1nnc(-c2ccc(O)c(OC)c2)s1
[1]
  IC50: 0.18 nM
[4]
  inhibition: 79.4%
[5]
  IC50: 0.05 nM
[2]
  inhibition: 92.9%
[3]
  inhibition: 98.8%

## CC(C)(C)c1ccc(NC(=O)N2CCN(c3ncccc3Cl)CC2)cc1
[4]
  inhibition: 8.97%
[2]
  inhibition: 66.4%
[3]
  inhibition: 92.7%

## CCCCCCCC(=O)Nc1nnc(-c2ccc(O)c(OC)c2)s1
[1]
  IC50: 0.15 nM
[4]
  inhibition: 81.2%
[2]
  inhibition: 89.8%
[3]
  inhibition: 97.7%

## CCCCCC(=O)Nc1nnc(-c2cc(I)c(O)c(OC)c2)s1
[1]
  IC50: 1.47 nM
[4]
  inhibition: 95.3%
[5]
  IC50: 0.29 nM
[2]
  inhibition: 94.3%
[3]
  inhibition: 96.6%
